Laboratory results as given in US11427575B2, “Antitumor compound for activating JWA gene and degrading HER2, preparation method thereof, and application thereof” (SIMCERE PHARMACEUTICAL CO., LTD., priority 2019, dated 2022).
Where two headings read alike, the source gives them in different places.

Key:
JWA protein [1] = experiment: Western blot of subcutaneous BT474 tumors, JWA; type: in vivo, BALB/c nude mice; conditions: treatment group
BT474 cells = conditions: BT474, Transwell, 0, 1, and 10 μL of JAC1, 12 h
Procedure: (§1) BT474 and SKBR3 cells in the logarithmic growth phase were transferred into six-well plates at the cell density of 40%-50%. After the cells adhered to the walls of the plates, the cells were respectively incubated in […] of JAC1. Spreading gel in Transwell chamber: the day before the assay, a 24-well plate and a plurality of Transwell chambers were prepared, and 1 mg/mL fibronectin (FN) mother liquor was diluted 10 times to a final concentration of 100 μg/mL. The bottom of each Transwell chamber was coated with 50 μL of FN, placed on a clean bench to air-dry for 2 h, and cultured in an incubator overnight.
(§2) On the day of the assay, the cultured cells were digested with 0.25% trypsin and resuspended in a serum-free medium in which the number of the cells were counted and the cell density was adjusted to 3×10^5 cells/mL. 100 μL of serum-free medium containing the cells was transferred onto the upper layer of each Transwell chamber, and 600 μL of mixture containing 10% FBS and 100 ng/mL EGF medium was added to the lower layer of each Transwell chamber. After incubation in an incubator for 12 h, the Transwell chambers were taken out, fixed with 95% methanol for 20 min, washed three times with phosphate-buffered saline (PBS), stained with crystal violet dye for 30 min, and washed three times with PBS. […]

SKBR3 cells = conditions: SKBR3, Transwell, 0, 1, and 10 μL of JAC1, 12 h
Procedure: as §1, §2

HER2 protein = experiment: Western blot of subcutaneous BT474 tumors, HER2; type: in vivo, BALB/c nude mice; conditions: treatment group
Procedure: BT474 human breast cancer cells in the logarithmic growth phase were suspended in ice-cold suspension buffer for a final concentration of 5×10^6/100 μL, followed by subcutaneous transplantations of the suspended cells into BALB/c nude mice. When the tumor grown up to 75-125 mm^3, the BALB/c nude mice were randomly divided into five equal groups, including a blank control group (Mock), a solvent control group (Vehicle), a 50 mg/kg JAC1 treatment group, a 100 mg/kg JAC1 treatment group, and a positive control group treated with Pacilitaxel and Trastuzumab (TH). Dose and administration: JAC1 was injected intraperitoneally into mice once daily; the dosage of Trastuzumab was 10 mg/kg injected intraperitoneally twice a week; the dosage of Pacilitaxel was 20 mg/kg injected intraperitoneally once a week. From the day of administration, mouse body weights and tumor diameters were measured every other 2 days, and the tumor volume was calculated using an equation. When the mice reached a humane endpoint at which the tumor volume increased to 2500-3000 mm^3, the research based on the mouse models was terminated and the laboratory mice were anesthetized and euthanized in a timely manner to alleviate animal suffering and perform the statistical analysis. […]

[2] = tested on: BT474 human breast cancer cells; experiment: Tumor growth in nude mice subcutaneously transplanted with BT474 cells; type: in vivo, BALB/c nude mice; conditions: for tumor growth (tumor volume): vs blank control; for tumor weight / tumor weight/mouse body weight ratio: P<0.05
Procedure: BT474 human breast cancer cells in the logarithmic growth phase were suspended in ice-cold suspension buffer for a final concentration of 5×10^6/100 μL, followed by subcutaneous transplantations of the suspended cells into BALB/c nude mice. When the tumor grown up to 75-125 mm^3, the BALB/c nude mice were randomly divided into five equal groups, including a blank control group (Mock), a solvent control group (Vehicle), a 50 mg/kg JAC1 treatment group, a 100 mg/kg JAC1 treatment group, and a positive control group treated with Pacilitaxel and Trastuzumab (TH). Dose and administration: JAC1 was injected intraperitoneally into mice once daily; the dosage of Trastuzumab was 10 mg/kg injected intraperitoneally twice a week; the dosage of Pacilitaxel was 20 mg/kg injected intraperitoneally once a week. From the day of administration, mouse body weights and tumor diameters were measured every other 2 days, and the tumor volume was calculated using an equation. When the mice reached a humane endpoint at which the tumor volume increased to 2500-3000 mm^3, the research based on the mouse models was terminated and the laboratory mice were anesthetized and euthanized in a timely manner to alleviate animal suffering and perform the statistical analysis.

JWA protein [3] = experiment: Western blot in HER2-positive breast cancer cells, JWA; type: cell-based, human; conditions: increasing concentration, 24 h
Procedure: The cells in the logarithmic growth phase were routinely digested, and transferred into 6-well plates at the cell density of 40%-50%. The cells were incubated with different concentrations of JAC1 for 24 h, followed by an addition of 0.1 mL of Radioimmunoprecipitation Assay Butter (RIPA, containing 0.5% phenylmethylsulfonyl fluoride (PMSF)) for protein extraction. After centrifugation at 12,000×g for 15 min, the supernatant was collected, and brought to a determination of protein concentration and a boil. Protein electrophoresis was performed with 10% polyacrylamide gel. The protein was transferred into the gel wells for 40 μg protein per well, migrated at 60 V for 30 min, and 90 V for 1.5-2 h. After gel electrophoresis, the protein was transferred by wet method from gel to a PVDF membrane, and blocked with 5% skim milk at room temperature for 1-2 h. The membrane was washed with Tris-Buffered Saline and Tween 20 (TBST, containing 0.1% Tween 20) three times for 5 min each, and incubated in the corresponding primary antibody overnight at 4° C. The membrane was then washed with the TBST (containing 0.1% Tween 20) three times for 5 min each, incubated in the secondary antibody at room temperature for 1-2 h, and washed with the TBST (containing 0.1% Tween 20) eight times for 5 min each. […]

JWA protein [4] = conditions: 10 μM, 48 h
Text: A HER2-positive BGC823 human gastric cancer cell line was established in which JWA gene was deleted using Crisp/cas9 technology. […] After protein extraction, western blotting technology was used to determine the expression levels of JWA and HER2 proteins in the wild-type cell line (JWA WT) and the JWA-knockout cell line (JWA KO).

COc1cccc2sc(Nc3nc4c(F)cccc4s3)nc12 [JAC1, 4-fluoro-N-(4-methoxybenzene (d)thiazole-2-group) benzene (d) thiazole-2-amine] was tested, and the “JWA protein level in tumor” value (JWA protein [1]) was “significantly increased”, the migratory ability (BT474 cells) was “effectively inhibit the migratory ability” and the migratory ability (SKBR3 cells) was “effectively inhibit the migratory ability”. The “HER2 protein level in tumor” value (HER2 protein) was “repressed significantly”, the “tumor growth (tumor volume)” value ([2]; 50 mg/kg intraperitoneally once daily) was “obvious results at suppressing tumor growth” and the “Tumor growth inhibition rate” value ([2]; 50 mg/kg ip once daily) was 31.22%. For the same molecule, the tumor weight ([2]; 50 mg/kg ip once daily) was “reduced”, the “tumor weight/mouse body weight ratio” value ([2]; 50 mg/kg ip once daily) was “decreased” and the “tumor growth (tumor volume)” value ([2]; 100 mg/kg intraperitoneally once daily) was “obvious results at suppressing tumor growth”. For the same molecule, the “Tumor growth inhibition rate” value ([2]; 100 mg/kg ip once daily) was 46.21%, the tumor weight ([2]; 100 mg/kg ip once daily) was “reduced” and the “tumor weight/mouse body weight ratio” value ([2]; 100 mg/kg ip once daily) was “decreased”. For the same molecule, the JWA protein level (JWA protein [3]) was “JWA protein level increased”, the JWA expression level (JWA protein [4]; BGC823 JWA KO) was “no effect” and the JWA protein level (JWA protein [4]; BGC823 JWA WT) was “significantly increase JWA protein level”.
